Measured values reported in article PMC12388300, “The Chelating Abilities of Tertiary Amines with N-O-Donors Towards Cu(II) Ions and the Catalytic Properties of the Resulting Complexes” (Molecules, 2025).
Read-outs that look alike come from different tables or passages of the source. Marks after values point to notes of the source that are not given here. Where no end group is shown, it is not given here.

Columns and labels:
[1] = Cyclic voltammetry of the Cu(II)/Cu(I) couple; format: physicochemical
Procedure: To assess this behavior, the corresponding redox potentials were measured by cyclic voltammetry (CV), offering key insights into the electron-transfer properties of the complexes. The metal ion redox potential should ideally lie between the potential for oxidation (−0.16 V vs. NHE) (Equation (1)) and reduction (0.89 V vs. NHE) of superoxide radicals (Equation (2)).(1) O2∙−→O2+e^− (2) O2∙−+e^−+H^+→H2O2
The key electrochemical parameters extracted from the cyclic voltammograms are summarized in Table 3, highlighting a similar redox behavior of the complexes with both ligands. However, the nature of the anion appears to influence the properties of the mononuclear species formed in situ, compared with the isolated complexes.
Cyclic voltammetry experiments were carried out using a BAS Cell C3 EC-epsilon potentiostat equipped with a conventional three-electrode system consisting of a glassy carbon working electrode (3 mm diameter, geometric surface 7 mm^2), a platinum wire counter electrode (CE), and a silver/silver chloride reference electrode (Ag/AgCl, 3 M KCl). Voltammograms were recorded in phosphate-buffered saline (PBS; 10 mM, 150 mM NaCl, pH 7.8) containing 0.25 mM of the complex. The measurements were performed within a potential window from −600 mV to +400 mV, employing various scan rates (50 mV/s, 100 mV/s, 200 mV/s, 400 mV/s, and 800 mV/s).

[2] = SOD activity, indirect cytochrome C (CytC) assay, xanthine/xanthine oxidase; format: biochemical; conditions: [CytC] = 10 μM, pH = 7.8
Procedure: To reduce uncertainty about the actual active species involved in the reaction, the catalytic investigations were made with the isolated species. The ability to catalyze superoxide dismutation was assessed using the indirect cytochrome C-based assay originally introduced by McCord and Fridovich. In this kind of test, the presence of a catalyst with SOD activity, acting as a scavenger for O2^•− and generated via a xanthine/xanthine oxidase system, prevents the electron transfer to cytochrome C (Cyt C) to form […].
(§1) Catalytic measurement assays were conducted using a Varian Cary 100 spectrophotometer with a 3 mL quartz cuvette (1 cm path length) for evaluating SOD-like activity. For the assessment of peroxidase-mimicking activity, a Varian Cary 50 instrument and identical cuvettes were utilized. To monitor the CAT-like activity, a 25 mL vial, equipped with a septum for solution injection, was used as a reactor and connected to a pressure transducer.

[3] = CAT-like activity: O2 pressure from hydrogen peroxide dismutation; format: biochemical; design: Rmax: unit not given here; conditions: [catalyst] = 200 μM, [H2O2] = 20–30 mM in BBS 50 mM, pH = 7.8
Procedure: The studied catalase-like activity of the complexes was evaluated by measuring the pressure resulting from the oxygen produced during the dismutation of the hydrogen peroxide. For this analysis, a borate-based buffer system (BBS 50 mM, pH 7.8) was utilized to avoid the competitive binding of phosphate anions.
as §1, with “transducer. […]” for “transducer.”
To monitor the CAT-like activity, a 25 mL vial was used as a reactor, connected to a pressure transducer and
a septum for the injection.

[4] = UV–Vis monitoring of complex stability during H2O2 dismutation; format: physicochemical; conditions: during H2O2 dismutation, BBS 50 mM pH 7.8
Description: The reaction progression was monitored by UV–Vis to gather insights into the stability of the complexes during H2O2 dismutation (Figures S45–S48 in Supplementary Materials). Analyzing the spectra recorded for the systems derived from HL1 and HL5, it is possible to observe changes in the absorption bands. In the case of the mononuclear species containing HL1, the alteration in the absorption band takes place over a comparatively extended period, in agreement with the occurrence of the delay period previously noted. The intensity associated with the π→π * electronic transition progressively diminishes, coinciding with a rise in molecular oxygen generation. Such a trend implies structural reconfiguration within the coordination environment of the complex, which appears necessary to initiate the catalytic event. On the other hand, the characteristic absorption feature vanishes after 4 h as a result of the formation of radical species. The UV–Vis profile of the complex Cu(HL5)(ClO4)2 (Figure S46) undergoes a faster modification.
Figure S46: UV-Vis spectra of Cu(HL5)(ClO4)2 at time 0 (red) and after 7 h (light red). The colours variation represents an increment of 5 min from t=0 to t=15 min, of 15 min from t=15 to t= 45 min and 45 min from t= 45 to t=360 min.
Conditions: [Cu(HL5)(ClO4)2]= 200 uM, [H2O2]=10mM in BBS 50mM pH=7.8. Zoom: temporal trends compared to O2 (red) and Abs (light red) on the maximum absorption at 294 nm.
Figure S47: UV-Vis spectra of Cu2(L1)2(ClO4)2 at time 0 (blue) and after 24 hours (light blue). Every change of colors represents a temporal increase of 90 minutes. Conditions: [Cu2(L1)2(ClO4)2] = 200 µM, [H2O2] = 10 mM in BBS 50 mM, pH = 7.8. Zoom: temporal trends compared to O2 (blue) and Abs (light blue) on the maximum absorption at 288 nm.
Figure S48: UV-Vis spectra of Cu2(L5)2(ClO4)2 at time 0 (dark green) and after 24 hours (light green). Every change of colours represents a temporal increase of 90 minutes. Conditions: [Cu2(L5)2(ClO4)2] = 200 µM, [H2O2] = 10 mM in BBS 50 mM, pH = 7.8. […]

[5] = cited from earlier work; for IC50: CytC assay, read-out: IC50 (SOD activity)
[6] = Potentiometric titration: protonation constants of the ligands; format: physicochemical; conditions: I = 0.1 M, 25 °C; for logβi, Lx^− + 2H^+ ⇌ [(HLx)H]^+ / logβi, Lx^− + 3H^+ ⇌ [(HLx)H2]^2+ / logβi, Lx^− + 4H^+ ⇌ [(HLx)H3]^3+ / logβi, Lx^− + H^+ ⇌ HLx: overall protonation constant, 5% v/v DMSO/H2O, HCl/KCl; for logKi, Lx^− + H^+ ⇌ HLx: stepwise protonation constant (phenolic group); for logKi, HLx + H^+ ⇌ [(HLx)H]^+ / logKi, [(HLx)H2]^2+ + H^+ ⇌ [(HLx)H3]^3+ / logKi, [(HLx)H]^+ + H^+ ⇌ [(HLx)H2]^2+: stepwise protonation constant
Procedure: Initially, potentiometric measurements were performed to investigate the binding abilities of the ligands in an aqueous environment at different pH levels and to construct the corresponding speciation curves (Figure 1). The analyses were performed in HCl/KCl mixtures, with KCl used to maintain a constant ionic strength of 0.1 mol·dm^−3. The first step of the potentiometric studies was the assessment of the acid-base properties of both ligands. The overall and stepwise protonation constants are collected in Table 1.
(§2) Potentiometric measurements were performed using a Metrohm pH-meter system equipped with a semi-micro combination electrode, at 25 °C. The system was calibrated based on hydrogen ion concentration using HCl. Ligands were prepared in a 5% (v/v) DMSO solution with water containing HCl/KCl with a constant ionic strength of I = 0.1 M to achieve a final concentration of 1 mM and 0.6 mM of HL1 and HL5, respectively. Titrations were conducted by incrementally adding 0.1 M KOH using a microsyringe at 25°C, spanning a pH interval from 2.5 to 11.5, under an argon atmosphere. The stability constants and complex stoichiometries were determined from the titration data using the SUPERQUAD and HYPERQUAD programs.

[7] = Potentiometric titration: stability constants and speciation of in situ-formed Cu(II) complexes; format: physicochemical; conditions: for logβi of [Cu(HLx)H]^3+ / logβi of [Cu(HLx)]^2+ / logβi of [Cu(Lx)(OH)2]^− / logβi of [Cu(Lx)(OH)] / logβi of [Cu(Lx)]^+: overall stability constant, in situ-formed complex, I = 0.1 M, 25 °C; for pH of maximum concentration of [Cu(HLx)H]^3+: speciation curves, ligand/copper(II) 1:1; for pKi of [Cu(Lx)(OH)2]^− / pKi of [Cu(Lx)(OH)] / pKi of [Cu(Lx)]^+ / pKi of [Cu(HLx)]^2+: stepwise stability constant; for pKi of [Cu(HLx)]^2+: [Cu(HLx)H]^3+ ⇄ [Cu(HLx)]^2+ + H^+
Procedure: Based on the potentiometric studies, the overall and stepwise stability constants of formed complexes were obtained and collected in Table 2; the speciation curves of in situ-formed complexes are presented in Figure 2.
as §2

[8] = [Catalyst] = 100 μM, [H2O2] = 30 mM, MOPS buffer (50 mM, pH 7.5); cited from earlier work
[9] = vs NHE, PBS 10 mM, 150 mM NaCl, pH 7.8, 0.25 mM complex

Row | Molecule | IC50 [5] | Log (kcat) [5] | logβi, Lx^− + 2H^+ ⇌ [(HLx)H]^+ [6] | logβi, Lx^− + 3H^+ ⇌ [(HLx)H2]^2+ [6] | logβi, Lx^− + 4H^+ ⇌ [(HLx)H3]^3+ [6] | logβi, Lx^− + H^+ ⇌ HLx [6] | logKi, Lx^− + H^+ ⇌ HLx [6] | logKi, HLx + H^+ ⇌ [(HLx)H]^+ [6] | logKi, [(HLx)H2]^2+ + H^+ ⇌ [(HLx)H3]^3+ [6] | logKi, [(HLx)H]^+ + H^+ ⇌ [(HLx)H2]^2+ [6] | logβi of [Cu(HLx)H]^3+ [7] | logβi of [Cu(HLx)]^2+ [7] | logβi of [Cu(Lx)(OH)2]^− [7] | logβi of [Cu(Lx)(OH)] [7] | logβi of [Cu(Lx)]^+ [7] | pH of maximum concentration of [Cu(HLx)H]^3+ [7] | pKi of [Cu(Lx)(OH)2]^− [7] | pKi of [Cu(Lx)(OH)] [7] | pKi of [Cu(Lx)]^+ [7] | pKi of [Cu(HLx)]^2+ [7] | further results
1 | Oc1ccccc1CN(Cc1ccccn1)Cc1ccccn1.[Cu+2].[O-][Cl+3]([O-])([O-])[O-].[O-][Cl+3]([O-])([O-])[O-] [Cu(HL1)(ClO4)2] | – | – | – | – | – | – | – | – | – | – | – | – | – | – | – | – | – | – | – | – | ΔE ([1]; Epc − Epa, PBS pH 7.8): −0.085 V; │ia/ic│ ([1]; peak current ratio, PBS pH 7.8): 0.61; E1/2 ([1]; vs NHE, E1/2=(Epc+Epa)/2, PBS pH 7.8): −0.135 V; Epa [1, 9]: −0.092 V; Epc [1, 9]: −0.177 V; IC50 ([2]; CytC assay, [xanthine] = 40 μM, [xanthine oxidase] = 0.0053 U/mL, phosphate buffer 50 mM): 1410 nM; Log (kcat) ([2]; kcat(O2•−)=kCytC·[CytC]/IC50, kCytC=2.6×10^5 M^−1s^−1): 6.27 ^h; Time (to maximum O2 production) [3]: 950 min; Induction Time ([3]; triplicate, ±10% error): 250 min; O2 generated ([3]; triplicate, ±10% error): 7.6 mmol/L; Rmax ([3]; triplicate, ±10% error): 0.25; time after which the characteristic absorption feature vanishes [4]: 4 h
2 | O=S(=O)([O-])[O-].[Cu+2] [CuSO4] | 72200 nM | ~6 | – | – | – | – | – | – | – | – | – | – | – | – | – | – | – | – | – | – | –
3 | Oc1ccccc1CN(Cc1ccccn1)Cc1ccccn1 [HL1, N-(2-hydroxylbenzyl)-N,N-bis(2-pyridylmethyl)amine] | – | – | 16.29 ± 0.02 | 21.53 ± 0.02 | 25.24 ± 0.02 | 9.99 ± 0.01 | 9.99 | 6.30 | 3.71 | 5.24 | 22.67 ± 0.06 | 16.84 ± 0.08 | −10.42 ± 0.09 | 0.03 ± 0.09 | 9.73 ± 0.08 | 4.5 | 10.45 | 9.70 | 7.11 | 5.83 | metal ion binding efficiency in the competition diagram ([7]; HL1:Cu(II):HL5 molar ratio 1:1:1, pH 3 to 11): significantly less efficient in metal ion binding
4 | COc1cccc(CN(Cc2ccccn2)Cc2ccccn2)c1O [HL5, 2-{[Bis(pyridin-2-ylmethyl)amino]methyl}-6-methoxyphenol] | – | – | 15.77 ± 0.02 | 20.71 ± 0.02 | 24.43 ± 0.02 | 9.52 ± 0.01 | 9.52 | 6.25 | 3.72 | 4.94 | 23.43 ± 0.08 | 18.04 ± 0.10 | −8.56 ± 0.11 | 1.77 ± 0.11 | 11.51 ± 0.10 | 3.5 | 10.33 | 9.74 | 6.53 | 5.39 | –
5 | O=C([O-])CCN(Cc1ccccn1)Cc1ccccn1.[Cu+2] [[Cu(BPMPA)]^+] | 1040 nM | 7.09 | – | – | – | – | – | – | – | – | – | – | – | – | – | – | – | – | – | – | –
6 | (CATm1)Cu2: di-copper complex of CATm1 = peptide sequence PHYKHRLH (also: di-copper complex) | – | – | – | – | – | – | – | – | – | – | – | – | – | – | – | – | – | – | – | – | O2 generated [8]: 0.3 mmol/L; Rmax [8]: 273 µM/min; Time [8]: 3 min
